Common to all, as to assay type: cell-based
Test [1] addresses T1, GLP-1 receptor (Homo sapiens, UniProt P43220). Kind of test: HitHunter cAMP assay, GLP-1 receptor. The settings on record: for EC50: CHO cells stably expressing human GLP-1 receptor, cAMP accumulation, 30 min, read-out: EC50 GLP-1R; for Emax: CHO cells, cAMP, normalized to maximum signal from GLP-1 (high) and DMSO (low), read-out: Emax GLP-1R. A general note: Changes in cAMP serve as a functional read-out for many G protein-coupled receptors.

The target of test [2] is T1, GLP-1 receptor. Put plainly: PathHunter β-arrestin assay, GLP-1 receptor. Further details: host or cells: PathHunter CHO-K1 GLP1R β-Arrestin Cell Line. The settings on record: β-arrestin-2 recruitment, PathHunter CHO-K1 GLP1R β-Arrestin Cell Line, 90 min at 37° C.; normalized to GLP-1; read-out: GLP-1R β Arrestin EC50. Background: Activated receptors often draw arrestin, which recruitment assays turn into a signal.

Test [3] addresses T2, GIP receptor (Homo sapiens, UniProt P48546).
T2 sequence (P48546 22-466): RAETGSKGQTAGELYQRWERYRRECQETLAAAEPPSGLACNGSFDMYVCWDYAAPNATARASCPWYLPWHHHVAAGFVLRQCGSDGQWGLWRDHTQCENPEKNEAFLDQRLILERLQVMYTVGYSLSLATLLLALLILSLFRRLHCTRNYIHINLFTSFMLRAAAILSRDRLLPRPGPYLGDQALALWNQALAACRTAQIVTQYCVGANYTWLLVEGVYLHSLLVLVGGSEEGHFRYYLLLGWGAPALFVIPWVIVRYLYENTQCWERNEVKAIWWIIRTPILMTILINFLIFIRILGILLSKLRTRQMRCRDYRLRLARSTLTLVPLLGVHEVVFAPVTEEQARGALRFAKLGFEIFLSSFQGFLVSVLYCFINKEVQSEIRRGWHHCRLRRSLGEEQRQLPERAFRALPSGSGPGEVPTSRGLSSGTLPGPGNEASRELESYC
Put plainly: PathHunter β-arrestin assay, GIP receptor. The settings on record: β-arrestin-2 recruitment, PathHunter CHO-K1 GIPR β-Arrestin Cell Line, 90 min at 37° C.; normalized to GIP; read-out: GIPR β Arrestin EC50. Details: host or cells: PathHunter CHO-K1 GIPR β-Arrestin Cell Line.

Test [4] deals with T2, GIP receptor. Put plainly: HitHunter cAMP assay, GIP receptor. The note with it: for EC50: CHO cells stably expressing GIP receptor, cAMP accumulation, 30 min, read-out: EC50 GIP-1R; for Emax: CHO cells, cAMP, normalized to maximum signal from GIP (high) and DMSO (low), read-out: Emax GIP-1R.

Consider five molecules from patent US12281149B2, “Modulators of G-protein coupled receptors” (priority 2021, dated 2025).

*1 amine or outer side, *2 acyl side, *3 side chain or, on linkers, in order; H or OH if unused. Where a SMILES comes first, the peptide text is derived from it. Side-chain parts run from the residue outwards. [ ]: non-standard residue; d: D form. The star is where a group is joined. Isobutyryl(2-(3-CN-5-F-Ph)) = CC(C)(C(=O)*)c1cc(F)cc(C#N)c1; C20 diacid = O=C(O)CCCCCCCCCCCCCCCCCCC(=O)*; β2hAla(2S) = C[C@@H](CN[*:1])C(=O)[*:2]; γGlu = O=C(O)[C@H](CCC(=O)[*:2])N[*:1]; X27 = O=C1CC(C(=O)*)(c2ccccc2)CN1; αMeF = C[C@](N)(Cc1ccccc1)C(=O)O; d(β3hD) = NC(CC(=O)O)CC(=O)O; AEEA = NCCOCCOCC(=O)O; Aib = CC(C)(N)C(=O)O; βAla = NCCC(=O)O

T1 sequence (P43220 24-463): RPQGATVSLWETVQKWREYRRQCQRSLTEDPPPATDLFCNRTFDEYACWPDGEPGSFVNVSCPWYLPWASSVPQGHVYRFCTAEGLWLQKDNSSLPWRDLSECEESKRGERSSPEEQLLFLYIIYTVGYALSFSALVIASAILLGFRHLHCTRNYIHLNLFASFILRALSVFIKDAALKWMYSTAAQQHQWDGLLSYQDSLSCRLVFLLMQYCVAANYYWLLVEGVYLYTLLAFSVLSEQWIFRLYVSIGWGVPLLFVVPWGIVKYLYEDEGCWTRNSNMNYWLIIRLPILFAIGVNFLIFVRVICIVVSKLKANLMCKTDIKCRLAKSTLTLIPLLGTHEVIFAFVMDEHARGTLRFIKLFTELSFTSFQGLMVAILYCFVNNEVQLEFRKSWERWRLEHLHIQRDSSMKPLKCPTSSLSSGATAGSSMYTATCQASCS

In the case of `CC[C@H](C)[C@H](NC(=O)[C@H](CC(C)C)NC(=O)[C@H](Cc1c[nH]c2ccccc12)NC(=O)[C@H](CCC(N)=O)NC(=O)[C@@H](NC(=O)[C@H](Cc1ccccc1)NC(=O)[C@H](C)NC(=O)[C@H](CCCCNC(=O)COCCOCCNC(=O)COCCOCCNC(=O)CC[C@H](NC(=O)CCCCCCCCCCCCCCCCCCC(=O)O)C(=O)O)NC(=O)[C@H](CCC(N)=O)NC(=O)[C@H](C)NC(=O)[C@@H](NC(=O)[C@H](CCCCN)NC(=O)[C@H](CC(=O)O)NC(=O)[C@H](CC(C)C)NC(=O)C(C)(C)NC(=O)[C@@H](NC(=O)[C@H](CO)NC(=O)[C@H](Cc1ccc(O)cc1)NC(=O)[C@H](CC(=O)O)NC(=O)[C@H](CO)NC(=O)[C@@H](NC(=O)[C@H](Cc1ccccc1)NC(=O)[C@@H](NC(=O)CNC(=O)[C@H](CCC(=O)O)NC(=O)[C@@H](C)CNC(=O)C(C)(C)c1cc(F)cc(C#N)c1)[C@@H](C)O)[C@@H](C)O)[C@@H](C)CC)[C@@H](C)CC)C(C)C)C(=O)N[C@@H](C)C(=O)NCC(=O)NCC(=O)N1CCC[C@H]1C(=O)N[C@@H](CO)C(=O)N[C@@H](CO)C(=O)NCC(=O)N[C@@H](C)C(=O)N1CCC[C@H]1C(=O)N1CCC[C@H]1C(=O)N1CCC[C@H]1C(=O)N[C@@H](CO)C(N)=O` [Compound 224] ({Isobutyryl(2-(3-CN-5-F-Ph))}-[β2hAla(2S)]EGTFTSDYSI[Aib]LDKIAQK([AEEA-AEEA-γGlu-C20 diacid])AFVQWLIAGGPSSGAPPPS-NH2), the EC50 on GLP-1 receptor [1] is 0.1 to 1 nM; on GLP-1 receptor [2], above 1000 nM; at GIP receptor [3] it was below 1000 nM; at GIP receptor [4] it was 1 to 10 nM. Also, the maximal response (Emax) at GLP-1 receptor [1] stood at 102%; on GIP receptor [4], 103%.
With `CC[C@H](C)[C@H](NC(=O)[C@H](CO)NC(=O)[C@H](Cc1ccc(O)cc1)NC(=O)[C@H](CC(=O)O)NC(=O)[C@H](CO)NC(=O)[C@@H](NC(=O)[C@H](Cc1ccccc1)NC(=O)[C@@H](NC(=O)CNC(=O)[C@H](CCC(=O)O)NC(=O)CCNC(=O)C1(c2ccc(Cl)cc2)CCCC1)[C@@H](C)O)[C@@H](C)O)C(=O)N[C@@H](Cc1ccc(O)cc1)C(=O)N[C@@H](CC(C)C)C(=O)N[C@@H](CC(=O)O)C(=O)N[C@@H](CCCCN)C(=O)N[C@@H](CCC(N)=O)C(=O)N[C@@H](C)C(=O)N[C@@H](C)C(=O)NC(C)(C)C(=O)N[C@@H](CCC(=O)O)C(=O)N[C@@H](Cc1ccccc1)C(=O)N[C@H](C(=O)N[C@@H](CC(N)=O)C(=O)N[C@@H](Cc1c[nH]c2ccccc12)C(=O)N[C@@H](CC(C)C)C(=O)N[C@@H](CC(C)C)C(=O)N[C@@H](C)C(=O)NCC(=O)NCC(=O)N1CCC[C@H]1C(=O)N[C@@H](CO)C(=O)N[C@@H](CO)C(=O)NCC(=O)N[C@@H](C)C(=O)N1CCC[C@H]1C(=O)N1CCC[C@H]1C(=O)N1CCC[C@H]1C(=O)N[C@@H](CO)C(=O)N[C@@H](CCCCNC(=O)COCCOCCNC(=O)COCCOCCNC(=O)CC[C@H](NC(=O)CCCCCCCCCCCCCCCCCCC(=O)O)C(=O)O)C(N)=O)C(C)C` [Compound 155], the concentration for a half-maximal effect (EC50) is 1 to 10 nM at GLP-1 receptor [1], above 1000 nM on GLP-1 receptor [2], above 1000 nM on GIP receptor [3] and 10 to 100 nM on GIP receptor [4]. Besides, the Emax is 101% at GLP-1 receptor [1] and 104% on GIP receptor [4].
Regarding `CC[C@H](C)[C@H](NC(=O)[C@H](CC(C)C)NC(=O)[C@H](Cc1c[nH]c2ccccc12)NC(=O)[C@H](CCC(N)=O)NC(=O)[C@@H](NC(=O)[C@H](Cc1ccccc1)NC(=O)[C@H](C)NC(=O)[C@H](CCCCNC(=O)COCCOCCNC(=O)COCCOCCNC(=O)CC[C@H](NC(=O)CCCCCCCCCCCCCCCCCCC(=O)O)C(=O)O)NC(=O)[C@H](CCC(N)=O)NC(=O)[C@H](C)NC(=O)[C@@H](NC(=O)[C@H](CCCCN)NC(=O)[C@H](CC(=O)O)NC(=O)[C@H](CC(C)C)NC(=O)C(C)(C)NC(=O)[C@@H](NC(=O)[C@H](CO)NC(=O)[C@H](Cc1ccc(O)cc1)NC(=O)[C@H](CC(=O)O)NC(=O)[C@H](CO)NC(=O)[C@@H](NC(=O)[C@H](Cc1ccccc1)NC(=O)[C@@H](NC(=O)CNC(=O)[C@@H](CC(=O)O)NC(=O)CCNC(=O)C1(c2ccccc2)CNC(=O)C1)[C@@H](C)O)[C@@H](C)O)[C@@H](C)CC)[C@@H](C)CC)C(C)C)C(=O)N[C@@H](C)C(=O)NCC(=O)NCC(=O)N1CCC[C@H]1C(=O)N[C@@H](CO)C(=O)N[C@@H](CO)C(=O)NCC(=O)N[C@@H](C)C(=O)N1CCC[C@H]1C(=O)N1CCC[C@H]1C(=O)N1CCC[C@H]1C(=O)N[C@@H](CO)C(N)=O` (stereo partly drawn) [Compound 122] ({X27-βAla}-[dD]GTFTSDYSI[Aib]LDKIAQK([AEEA-AEEA-γGlu-C20 diacid])AFVQWLIAGGPSSGAPPPS-NH2), the EC50 was 1 to 10 nM at GLP-1 receptor [1], above 1000 nM at GLP-1 receptor [2], below 1000 nM at GIP receptor [3] and 10 to 100 nM at GIP receptor [4]. Moreover, the Emax amounted to 100% at GLP-1 receptor [1] and 92% on GIP receptor [4].
For the molecule `CC[C@H](C)[C@H](NC(=O)[C@H](CC(C)C)NC(=O)[C@H](Cc1c[nH]c2ccccc12)NC(=O)[C@H](CCC(N)=O)NC(=O)[C@@H](NC(=O)[C@H](Cc1ccccc1)NC(=O)[C@H](C)NC(=O)[C@H](CCCCNC(=O)COCCOCCNC(=O)COCCOCCNC(=O)CC[C@H](NC(=O)CCCCCCCCCCCCCCCCCCC(=O)O)C(=O)O)NC(=O)[C@H](CCC(N)=O)NC(=O)[C@H](C)NC(=O)[C@@H](NC(=O)[C@H](CCCCN)NC(=O)[C@H](CC(=O)O)NC(=O)[C@H](CC(C)C)NC(=O)C(C)(C)NC(=O)[C@@H](NC(=O)[C@H](CO)NC(=O)[C@H](Cc1ccc(O)cc1)NC(=O)[C@H](CC(=O)O)NC(=O)[C@H](CO)NC(=O)[C@@H](NC(=O)[C@](C)(Cc1ccccc1)NC(=O)[C@@H](NC(=O)CNC(=O)[C@H](CCC(=O)O)NC(=O)CCNC(=O)C(C)(C)c1cc(F)cc(C#N)c1)[C@@H](C)O)[C@@H](C)O)[C@@H](C)CC)[C@@H](C)CC)C(C)C)C(=O)N[C@@H](C)C(=O)NCC(=O)NCC(=O)N1CCC[C@H]1C(=O)N[C@@H](CO)C(=O)N[C@@H](CO)C(=O)NCC(=O)N[C@@H](C)C(=O)N1CCC[C@H]1C(=O)N1CCC[C@H]1C(=O)N1CCC[C@H]1C(=O)N[C@@H](CO)C(N)=O` [Compound 235] ({Isobutyryl(2-(3-CN-5-F-Ph))-βAla}-EGT[αMeF]TSDYSI[Aib]LDKIAQK([AEEA-AEEA-γGlu-C20 diacid])AFVQWLIAGGPSSGAPPPS-NH2), the EC50 on GLP-1 receptor [1] was 0.1 to 1 nM; on GLP-1 receptor [2], above 1000 nM; on GIP receptor [3] it was below 1000 nM; at GIP receptor [4], 0.1 to 1 nM. In addition, the figures for the Emax on GLP-1 receptor [1] and on GIP receptor [4] were 122% and 108%, respectively.
As for `CC[C@H](C)[C@H](NC(=O)[C@H](CC(C)C)NC(=O)[C@H](Cc1c[nH]c2ccccc12)NC(=O)[C@H](CCC(N)=O)NC(=O)[C@@H](NC(=O)[C@H](Cc1ccccc1)NC(=O)[C@H](C)NC(=O)[C@H](CCCCNC(=O)COCCOCCNC(=O)COCCOCCNC(=O)CC[C@H](NC(=O)CCCCCCCCCCCCCCCCCCC(=O)O)C(=O)O)NC(=O)[C@H](CCC(N)=O)NC(=O)[C@H](C)NC(=O)[C@@H](NC(=O)[C@H](CCCCN)NC(=O)[C@H](CC(=O)O)NC(=O)[C@H](CC(C)C)NC(=O)C(C)(C)NC(=O)[C@@H](NC(=O)[C@H](CO)NC(=O)[C@H](Cc1ccc(O)cc1)NC(=O)[C@H](CC(=O)O)NC(=O)[C@H](CO)NC(=O)[C@@H](NC(=O)[C@H](Cc1ccccc1)NC(=O)[C@@H](NC(=O)CNC(=O)C[C@@H](CC(=O)O)NC(=O)CCNC(=O)C(C)(C)c1cc(F)cc(C#N)c1)[C@@H](C)O)[C@@H](C)O)[C@@H](C)CC)[C@@H](C)CC)C(C)C)C(=O)N[C@@H](C)C(=O)NCC(=O)NCC(=O)N1CCC[C@H]1C(=O)N[C@@H](CO)C(=O)N[C@@H](CO)C(=O)NCC(=O)N[C@@H](C)C(=O)N1CCC[C@H]1C(=O)N1CCC[C@H]1C(=O)N1CCC[C@H]1C(=O)N[C@@H](CO)C(N)=O` [Compound 104] ({Isobutyryl(2-(3-CN-5-F-Ph))-βAla}-[d(β3hD)]GTFTSDYSI[Aib]LDKIAQK([AEEA-AEEA-γGlu-C20 diacid])AFVQWLIAGGPSSGAPPPS-NH2), the EC50 on GLP-1 receptor [1] is 100 to 1000 nM; at GLP-1 receptor [2] it was above 1000 nM; on GIP receptor [3], above 1000 nM; at GIP receptor [4], 100 to 1000 nM. Further, the maximal response (Emax) on GLP-1 receptor [1] amounted to 60%; on GIP receptor [4], 66%.

One may read the EC50 as the concentration that produces a half-maximal response. The term Emax denotes the size of the effect at its maximum, as opposed to the concentration needed.
